Assay results reported in BindingDB's records for doi:10.1016/s0960-894x(00)00601-6 (National Cancer Istitute-Frederick Cancer Research and …, 2001).

Tests used:
[1] = target: T1, C-C chemokine receptor type 1 (Homo sapiens, UniProt P32246); test: ChEBML_40342
T1 sequence (P32246 whole entry): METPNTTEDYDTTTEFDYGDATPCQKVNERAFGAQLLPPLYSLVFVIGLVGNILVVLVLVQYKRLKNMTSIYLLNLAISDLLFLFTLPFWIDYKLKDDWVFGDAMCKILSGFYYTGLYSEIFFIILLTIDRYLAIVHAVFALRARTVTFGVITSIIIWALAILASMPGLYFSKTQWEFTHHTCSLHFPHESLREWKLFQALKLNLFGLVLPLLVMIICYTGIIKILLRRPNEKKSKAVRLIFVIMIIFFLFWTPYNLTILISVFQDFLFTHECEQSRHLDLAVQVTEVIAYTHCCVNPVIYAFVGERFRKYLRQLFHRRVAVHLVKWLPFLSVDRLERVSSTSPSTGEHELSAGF
Excerpt: Inhibition of RANTES-induced migration of human embryonic kidney (CCR1/HEK) cell transfectants

[2] = Inhibition of RANTES-induced migration of human embryonic kidney (CCR1/HEK) cell transfectants

Compound | IC50 [1] [µM] | IC50 [2] [µM]
[C][C]([C])[C][C][C][C]([C])[C@H]1[C][C][C@H]2[C@@H]3[C][C][C]4[C][C@@H]([C][C][C]=C(c5cc(Cl)c(O[C]c6ccc(-c7cccc(C([O])=O)c7)cc6)c(C(=O)O)c5)c5cc(Cl)c(O[C]c6ccc(-c7cccc(C([O])=O)c7)cc6)c(C(=O)O)c5)[C][C][C@]4([C])[C@H]3[C][C][C@]12[C] [5-{1-{3-carboxylato-4-[4-(3-carboxyphenyl)benzyloxy]-5-chlorophenyl}-4-[1-(1,5-dimethylhexyl)-9a,11a-dimethylperhydrocyclopenta[a]phenanthren-7-yl]-1-butenyl}-2-[4-(3-carboxyphenyl)benzyloxy]-3-chlorobenzoate] | 9.1 | –
[C][C]([C])[C][C][C][C]([C])[C@H]1[C][C][C@H]2[C@@H]3[C][C][C]4[C][C@@H]([C][C][C]=C(c5cc(Cl)c(O[C]c6cccc(B([O])O)c6)c(C(=O)O)c5)c5cc(Cl)c(O[C]c6cccc(B([O])O)c6)c(C(=O)O)c5)[C][C][C@]4([C])[C@H]3[C][C][C@]12[C] [Cosalane derivative] | 4 | –
CC(C)CCCC(C)[C@H]1CC[C@H]2[C@@H]3CCC4C[C@@H](CCC=C(c5cc(Cl)c(O)c(C(=O)NCC(=O)O)c5)c5cc(Cl)c(O)c(C(=O)NCC(=O)O)c5)CC[C@]4(C)[C@H]3CC[C@]12C (some centres undefined) | – | 10
CC(C)CCCC(C)[C@H]1CC[C@H]2[C@@H]3CCC4C[C@@H](CCC=C(c5cc(Cl)c(O)c(C(=O)O)c5)c5cc(Cl)c(O)c(C(=O)O)c5)CC[C@]4(C)[C@H]3CC[C@]12C (some centres undefined) | – | 0.26
